Assay results published in patent US11419803B2, “Skin darkening composition” (Conopco, Inc., priority 2017, dated 2022).

Columns and labels:
[1] = test system: Neonatal foreskin primary human epidermal melanocytes; experiment: Cell viability, calcein method; format: cell-based
Protocol: (§1) All test compounds were purchased from SIGMA-ALDRICH as powders. They were tested at various concentrations in cell culture (see below). Forskolin (SIGMA Cat. # F6886) was used as reference comparators, as they have been reported to increase melanin content. Neonatal foreskin primary human epidermal melanocytes were procured from Cascade Biologicals (labelled passage P0). Melanocytes were maintained in Medium 254CF (Cascade Cat. # M-254CF-500) supplemented with human melanocyte growth supplement (Cascade; Cat. # S-002-5), hereafter referred to as MGM. Cells were maintained at 37° C. in a humidified incubator with 5% CO2 atmosphere.
(§2) 50,000 cells were seeded in 24 well plate in MGM; after 24 hours, cultures were treated with various concentrations of the test materials and left undisturbed for a further period of 72 hours. Comparative vehicle controls of 0.25% (v/v) DMSO were also set up in parallel, simultaneously. At the end of the incubation period, cell viability was determined using the calcein method.
Briefly, cell culture spent media was removed and cells washed once with 0.4 ml of 1× PBS-Ca—Mg solution. Fresh 1 μM calcein-AM was added (0.2 ml/well), including to control wells without cells. Plates were covered with aluminium foil and incubated for 30 minutes. at 37° C. in the regular CO2 incubator. Calcein fluorescence was then measured (λmax 490 nm and λmax 520 nm) in TECAN® M1000 Infinite series plate reader.
(§3) Calcein fluorescence values were ratio converted in 0 to 100 scale (% viability), with 100 representing the value of the 0.25% DMSO sample. % Melanin content was calculated as the ratio between OD405 nm value of any sample to that of DMSO reference sample.

[2] = test system: Neonatal foreskin primary human epidermal melanocytes; experiment: Melanin content assay; format: cell-based; conditions: 72 hours, compared to vehicle control = 100
Protocol: as §1, §2
After calcein fluorescence readings were obtained, cells were drained and added fresh 125 μl of 1N NaOH (in 10% DMSO) per well. Cells were lysed by resuspension and incubation (60° C./1 hour.). Then this lysate was transferred to a fresh […] and measured OD405 nm in a TECAN M1000 plate reader (estimate of relative melanin content).
as §3
Normalized melanin content value was then calculated as 100*(% Melanin Content)/(% Cellular viability).
The percentage Increase in melanin content was estimated as [(Normalized melanin content)−100]

SMILES	% Viability ([1]; human, 72 h, 6.25 µM)	% Viability ([1]; human, 72 h, 12.5 µM)	% Viability ([1]; human, 72 h, 25 µM)	% Melanin content ([2]; 6.25 micromolar)	% Melanin content ([2]; 12.5 micromolar)	% Melanin content ([2]; 25 micromolar)	% Viability ([1]; 10 micromolar, 72 hours, relative to 0.25% DMSO control = 100)	% Viability ([1]; 15 micromolar, 72 hours, relative to 0.25% DMSO control = 100)	% Viability ([1]; 20 micromolar, 72 hours, relative to 0.25% DMSO control = 100)	% Viability ([1]; 25 micromolar, 72 hours, relative to 0.25% DMSO control = 100)	% Melanin content ([2]; 10 micromolar)	% Melanin content ([2]; 15 micromolar)	% Melanin content ([2]; 20 micromolar)	% Viability ([1]; human, 72 h, 10 µM)	% Viability ([1]; human, 72 h, 15 µM)	% Viability ([1]; human, 72 h, 20 µM)	% Viability ([1]; human, 72 h, 5 µM)	% Melanin content ([2]; 5 micromolar)
CCCCCCCc1ccc(C(=O)O)cc1 [Example 1, 4-heptyl benzoic acid]	102%	102%	93%	124%	129%	113%	–	–	–	–	–	–	–	–	–	–	–	–
CCCCCCCOc1ccc(C(=O)O)cc1 [Example 2, 4-heptyloxybenzoic acid]	–	–	–	–	–	137%	94%	96%	95%	96%	117%	126%	129%	–	–	–	–	–
CCCCCCCCOc1ccc(C(=O)O)cc1 [Example 3, 4-octyloxybenzoic acid]	–	–	86%	–	–	86%	–	–	–	–	127%	144%	127%	101%	103%	100%	–	–
CCCCCCCCCOc1ccc(C(=O)O)cc1 [Example 4, 4-nonyloxybenzoic acid]	–	–	103%	–	–	137%	–	–	–	–	129%	136%	130%	109%	109%	103%	102%	126%
CCCCCCCCCCCOc1ccc(C(=O)O)cc1 [Example 5, 4-undecyloxybenzoic acid]	–	–	79%	–	–	120%	–	–	–	–	136%	146%	134%	97%	100%	90%	–	–
